From ChEMBL document CHEMBL6127114, “Discovery of Bis-imidazolecarboxamide Derivatives as Novel, Potent, and Selective TNIK Inhibitors for the Treatment of Idiopathic Pulmonary Fibrosis” (J Med Chem, 2024)
≈ marks a conversion by molar mass, not a printed value.

Experiments:
in vitro = conditions: human, lx-2
LX-2 [1] = assay: cells; conditions: Homo sapiens
[2] = molecular target: T1, TRAF2 and NCK-interacting protein kinase (Homo sapiens, UniProt Q9UKE5)
LX-2 [3] = assay: cells; conditions: Homo sapiens; remark: listed apart in the source
physchem = conditions: buffer, pH 7.4
[4] = Metabolic stability in human liver microsomes assessed as intrinsic clearance preincubated for 60 mins followed by NADPH addition and measured after 5 to 60 mins by LC-MS/MS analysis; assay type: ADME, Microsome; conditions: time 65-120 min, read-out: CLH
[5] = Metabolic stability in mouse liver microsomes assessed as intrinsic clearance preincubated for 60 mins followed by NADPH addition and measured after 5 to 60 mins by LC-MS/MS analysis; assay type: ADME, Microsome; conditions: time 65-120 min, read-out: CLH
[6] = Apparent permeability in human Caco-2 cells; assay type: ADME, cell-based
[7] = molecular target: T2, Muscarinic acetylcholine receptor M1 (Homo sapiens, UniProt P11229); assay: Inhibition of human CHRM1 by Eurofins DiscoverX method
T2 sequence (P11229 whole entry): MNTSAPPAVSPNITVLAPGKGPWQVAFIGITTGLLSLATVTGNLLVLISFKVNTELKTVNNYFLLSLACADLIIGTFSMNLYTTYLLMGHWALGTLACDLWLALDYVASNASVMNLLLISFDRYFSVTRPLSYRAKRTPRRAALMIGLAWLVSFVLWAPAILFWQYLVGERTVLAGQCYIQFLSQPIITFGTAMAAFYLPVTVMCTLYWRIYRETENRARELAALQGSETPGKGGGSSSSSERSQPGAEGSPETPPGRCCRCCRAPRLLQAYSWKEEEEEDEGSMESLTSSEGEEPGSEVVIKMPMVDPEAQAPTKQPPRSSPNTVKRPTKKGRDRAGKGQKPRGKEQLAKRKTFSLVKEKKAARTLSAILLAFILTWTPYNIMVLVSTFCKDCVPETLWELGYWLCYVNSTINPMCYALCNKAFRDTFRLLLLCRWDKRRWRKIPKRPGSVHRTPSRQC

[8] = Inhibition of fibronectin-1 protein expression in human Primary bronchial epithelial cell; assay type: functional, cell-based
Mus musculus [9] = assay: Anti-hepatic fibrosis activity in CCL4-induced male C57BL6/J mouse hepatic fibrosis model assessed as change in body weight at 10 mg/kg, po meausred after 2 weeks (reference value: -1.8%); assay type: functional
Mus musculus [10] = assay: Anti-hepatic fibrosis activity in CCL4-induced male C57BL6/J mouse hepatic fibrosis model assessed as change in body weight at 3 mg/kg, po meausred after 2 weeks (reference value: -1.8%); assay type: functional
[11] = molecular target: T1, TRAF2 and NCK-interacting protein kinase; remark: listed apart in the source

T1 sequence (Q9UKE5 whole entry): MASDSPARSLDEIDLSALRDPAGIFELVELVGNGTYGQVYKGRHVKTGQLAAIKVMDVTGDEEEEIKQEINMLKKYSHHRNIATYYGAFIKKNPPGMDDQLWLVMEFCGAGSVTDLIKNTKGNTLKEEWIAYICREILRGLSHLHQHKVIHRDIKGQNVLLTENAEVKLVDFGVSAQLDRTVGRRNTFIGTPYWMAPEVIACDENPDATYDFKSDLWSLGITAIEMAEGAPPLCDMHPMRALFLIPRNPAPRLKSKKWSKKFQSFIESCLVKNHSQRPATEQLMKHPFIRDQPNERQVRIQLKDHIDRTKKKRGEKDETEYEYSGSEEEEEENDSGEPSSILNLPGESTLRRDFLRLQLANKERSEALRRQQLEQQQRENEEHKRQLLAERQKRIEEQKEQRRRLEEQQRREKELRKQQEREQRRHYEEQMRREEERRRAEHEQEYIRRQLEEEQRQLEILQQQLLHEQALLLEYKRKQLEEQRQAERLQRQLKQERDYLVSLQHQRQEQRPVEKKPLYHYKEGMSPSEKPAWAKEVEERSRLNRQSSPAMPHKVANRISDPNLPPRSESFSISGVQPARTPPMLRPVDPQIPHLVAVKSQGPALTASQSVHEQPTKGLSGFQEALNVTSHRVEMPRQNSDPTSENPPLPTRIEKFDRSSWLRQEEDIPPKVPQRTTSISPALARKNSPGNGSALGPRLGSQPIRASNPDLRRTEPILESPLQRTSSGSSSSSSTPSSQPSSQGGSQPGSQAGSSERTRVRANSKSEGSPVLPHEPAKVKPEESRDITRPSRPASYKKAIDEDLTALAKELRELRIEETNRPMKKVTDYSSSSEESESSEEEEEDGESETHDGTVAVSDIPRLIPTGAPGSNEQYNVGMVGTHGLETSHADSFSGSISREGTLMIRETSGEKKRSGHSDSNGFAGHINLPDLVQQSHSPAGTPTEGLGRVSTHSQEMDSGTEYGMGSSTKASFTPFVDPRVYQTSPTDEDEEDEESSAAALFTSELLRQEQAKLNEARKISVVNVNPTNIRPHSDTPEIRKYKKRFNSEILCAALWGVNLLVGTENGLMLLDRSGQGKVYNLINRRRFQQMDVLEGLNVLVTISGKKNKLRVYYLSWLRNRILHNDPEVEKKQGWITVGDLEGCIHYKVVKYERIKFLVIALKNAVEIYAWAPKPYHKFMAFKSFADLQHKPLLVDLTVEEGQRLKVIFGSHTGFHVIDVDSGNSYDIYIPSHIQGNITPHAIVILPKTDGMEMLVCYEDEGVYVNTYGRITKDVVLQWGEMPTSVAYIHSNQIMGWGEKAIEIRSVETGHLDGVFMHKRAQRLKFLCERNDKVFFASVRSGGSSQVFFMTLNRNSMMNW

CC(C)n1cnc(-c2ccc(F)cc2)c1-c1nc(C(=O)Nc2ccc(N(CCO)CCO)cc2)c[nH]1 gave an IC50 at 72 h (in vitro) greater than 100000 nM, an IC50 (LX-2 [1]) of 839 nM and an IC50 [2] of 79.1 nM. For the same molecule, the IC50 (LX-2 [3]) was 904 nM.
With CC(C)n1cnc(-c2ccc(F)cc2)c1-c1nc(C(=O)Nc2ccc(N3CC4CCC(C3)N4C)cc2)c[nH]1 the IC50 at 72 h (in vitro) was 22600 nM, the IC50 (LX-2 [1]) was 42 nM and the IC50 [2] was 4 nM. For the same molecule, the IC50 (LX-2 [3]) was 77 nM.
Molecule CC1CN(c2ccc(NC(=O)c3c[nH]c(-c4c(-c5ccc(F)cc5)ncn4C(C)C)n3)cc2)CC(C)N1C (stereo not given) has an IC50 at 72 h (in vitro) of 12300 nM, an IC50 (LX-2 [1]) of 71 nM and an IC50 [2] of 18 nM. It also gave an IC50 (LX-2 [3]) of 71 nM.
CC(C)n1cnc(-c2ccc(F)cc2)c1-c1cccc(C(=O)Nc2ccc(N3CCN(C)CC3)cc2)n1 showed an IC50 [2] of 5.9 nM, a solubility kinetic at 24 h (physchem) of 105 µM (≈ 52.4 µg/mL) and a microsomal CLint [4] of 119 µL/min/mg. It also gave a microsomal CLint [5] of 122 µL/min/mg.
For CC(C)n1cnc(-c2ccc(F)cc2)c1-c1nc(C(=O)Nc2ccc(C(=O)O)cc2)c[nH]1, the IC50 at 72 h (in vitro) was greater than 100000 nM, the IC50 (LX-2 [1]) was greater than 10000 nM and the IC50 [2] was 149 nM. The IC50 (LX-2 [3]) was greater than 10000 nM and the Papp [6] was 0.07 ×10⁻⁶ cm/s.
Molecule CC(C)n1cnc(-c2ccc(F)cc2)c1-c1ccc(C(=O)Nc2ccc(N3CCN(C)CC3)cc2)o1 has an IC50 [2] of 10.5 nM, a solubility kinetic at 24 h (physchem) of 40 µM (≈ 19.5 µg/mL) and a microsomal CLint [4] greater than 150 µL/min/mg. The microsomal CLint [5] was greater than 150 µL/min/mg.
In the case of CC(C)n1cnc(-c2ccc(F)cc2)c1-c1ccc(C(=O)Nc2ccc(CCO)cc2)o1, the IC50 [2] is reported as 40.2 nM, the solubility kinetic at 24 h (physchem) is reported as less than 2 µM and the microsomal CLint [4] is reported as greater than 150 µL/min/mg. The microsomal CLint [5] was greater than 150 µL/min/mg.
With CC(C)n1cnc(-c2ccc(F)cc2)c1-c1nc(C(=O)Nc2ccc(N3CCN(CC(F)(F)F)CC3)cc2)c[nH]1 the IC50 at 72 h (in vitro) was greater than 100000 nM, the IC50 (LX-2 [1]) was 519 nM and the IC50 [2] was 42 nM. It also gave an IC50 (LX-2 [3]) of 125 nM.
Molecule CC(C)n1cnc(-c2ccc(F)cc2)c1-c1nc(C(=O)Nc2ccc(CCO)cc2)c[nH]1 has an IC50 at 72 h (in vitro) greater than 100000 nM, an IC50 (LX-2 [1]) of 306 nM and an IC50 [2] of 9.5 nM. The IC50 (LX-2 [3]) was 264 nM.
Work on CC(C)n1cnc(-c2ccc(F)cc2)c1-c1nc(C(=O)Nc2ccc(N3CCN(C)C(=O)C3)cc2)c[nH]1 yielded an IC50 at 72 h (in vitro) greater than 100000 nM, an IC50 (LX-2 [1]) of 898 nM and an IC50 [2] of 47 nM. The IC50 (LX-2 [3]) was 713 nM.
For CC(C)n1cnc(-c2ccc(F)cc2)c1-c1nc(C(=O)Nc2ccc(N3CCN(CCO)CC3)cc2)c[nH]1, the IC50 at 72 h (in vitro) was greater than 100000 nM, the IC50 (LX-2 [1]) was 123 nM and the IC50 [2] was 21.1 nM. The IC50 (LX-2 [3]) was 162 nM.
CC(C)n1cnc(-c2ccc(F)cc2)c1-c1nc(C(=O)Nc2ccc(CCCCC(=O)O)cc2)c[nH]1 showed an IC50 at 72 h (in vitro) greater than 100000 nM, an IC50 (LX-2 [1]) greater than 10000 nM and an IC50 [2] of 51 nM. For the same molecule, the IC50 (LX-2 [3]) was greater than 10000 nM and the Papp [6] was 0.07 ×10⁻⁶ cm/s.
In the case of CC(C)n1cnc(-c2ccc(F)cc2)c1-c1nc(C(=O)Nc2ccc(N3CCN(C)CC3)cc2)c[nH]1, the IC50 [7] is reported as 8400 nM, the IC50 [8] is reported as 250 nM and the Activity (Mus musculus [9]) is reported as 6.065%. It also gave an Activity (Mus musculus [10]) of -0.671%.
For CC(C)n1cnc(-c2ccc(F)c(F)c2)c1-c1nc(C(=O)Nc2ccc(N3CCN(C)CC3)cc2)c[nH]1, the IC50 [2] was 51 nM.
For CC(=O)N1CCN(c2ccc(NC(=O)c3c[nH]c(-c4c(-c5ccc(F)cc5)ncn4C(C)C)n3)cc2)CC1, the IC50 at 72 h (in vitro) was greater than 100000 nM, the IC50 (LX-2 [1]) was 144 nM and the IC50 [2] was 6 nM. The IC50 (LX-2 [3]) was 572 nM.
With CC(C)n1cnc(-c2ccc(F)cc2)c1-c1cccc(C(=O)Nc2ccc(CCO)cc2)n1 the IC50 [2] was 5.7 nM, the solubility kinetic at 24 h (physchem) was less than 2 µM and the microsomal CLint [4] was 161 µL/min/mg. For the same molecule, the microsomal CLint [5] was 124 µL/min/mg.
Molecule CC(C)n1cnc(-c2ccc(F)cc2)c1-c1nc(C(=O)Nc2ccc(N3CCN(S(N)(=O)=O)CC3)cc2)c[nH]1 has an IC50 [2] of 10.6 nM and a solubility kinetic at 24 h (physchem) of less than 2 µM.
CC(C)n1cnc(-c2ccc(F)cc2)c1-c1nc(C(=O)Nc2ccc(N3CCN(C(N)=O)CC3)cc2)c[nH]1 showed an IC50 [2] of 199 nM.
CC(C)n1cnc(-c2ccc(F)cc2)c1-c1nc(C(=O)Nc2ccc(CCC(=O)O)cc2)c[nH]1 showed an IC50 at 72 h (in vitro) greater than 100000 nM, an IC50 (LX-2 [1]) greater than 10000 nM and an IC50 [2] of 46.3 nM. It also gave an IC50 (LX-2 [3]) greater than 10000 nM and a Papp [6] of 0.07 ×10⁻⁶ cm/s.
Molecule CC(C)n1cnc(-c2ccc(F)cc2)c1-c1cccc(C(=O)Nc2ccc(N3CCN(CCO)CC3)cc2)n1 has an IC50 [2] of 5.2 nM, a solubility kinetic at 24 h (physchem) of 5.3 µM (≈ 2.8 µg/mL) and a microsomal CLint [4] of 141 µL/min/mg. For the same molecule, the microsomal CLint [5] was 69.5 µL/min/mg.
CC(C)n1cnc(-c2ccc(F)cc2)c1-c1nc(C(=O)Nc2ccc(N3CCNCC3)cc2)c[nH]1 gave an IC50 at 72 h (in vitro) of 40500 nM, an IC50 (LX-2 [1]) of 81 nM and an IC50 [2] of 11.1 nM. It also gave an IC50 (LX-2 [3]) of 65 nM.
Work on CC(C)n1cnc(-c2ccc(F)cc2)c1-c1nc(C(=O)Nc2ccc(N3CC[N+](C)([O-])CC3)cc2)c[nH]1 yielded an IC50 at 72 h (in vitro) greater than 100000 nM, an IC50 (LX-2 [1]) of 115 nM and an IC50 [2] of 34.3 nM. The IC50 (LX-2 [3]) was greater than 10000 nM.
Molecule CC(C)n1cnc(-c2ccc(F)cc2)c1-c1cccc(C(=O)Nc2ccc(CCC(=O)O)cc2)n1 has an IC50 [2] of 5.7 nM, a solubility kinetic at 24 h (physchem) of less than 2 µM and a microsomal CLint [4] of less than 9.6 µL/min/mg. It also gave a microsomal CLint [5] of less than 9.6 µL/min/mg.
In the case of CC(C)n1cnc(-c2ccc(Cl)cc2)c1-c1nc(C(=O)Nc2ccc(N3CCN(C)CC3)cc2)c[nH]1, the IC50 [2] is reported as 71.3 nM.
CC(C)n1cnc(-c2ccc(C(F)(F)F)cc2)c1-c1nc(C(=O)Nc2ccc(N3CCN(C)CC3)cc2)c[nH]1 showed an IC50 [2] greater than 10000 nM.
Molecule Cn1ccc2cc(-c3ccc4c(c3)SCCN(Cc3ccc(F)cc3)C4=O)cnc21 has an IC50 [11] of 26 nM.
